In patent US6984649B1, “Pyridine derivatives” (Bayer Aktiengesellschaft, priority 2000, dated 2006):
Counter-ions that a name gives are not always drawn.

Key:
human IKK-β = molecular target: T1, human IKK-β (Homo sapiens, UniProt O14920); experiment: IKK-β kinase inhibitory assay; type: biochemical; conditions: compounds as yielded by solid phase synthesis, purity about 40 to 90%, read-out: In vitro activity grade (In vitro IC50)
T1 construct: A cDNA fragment encoding human IKK-β open reading frame was generated by PCR; His tag (from pcDNA3.1/His C); made in house; host or cells: Sf21 insect cells (baculovirus); substrate made in E. coli
T1 sequence (O14920 1-756): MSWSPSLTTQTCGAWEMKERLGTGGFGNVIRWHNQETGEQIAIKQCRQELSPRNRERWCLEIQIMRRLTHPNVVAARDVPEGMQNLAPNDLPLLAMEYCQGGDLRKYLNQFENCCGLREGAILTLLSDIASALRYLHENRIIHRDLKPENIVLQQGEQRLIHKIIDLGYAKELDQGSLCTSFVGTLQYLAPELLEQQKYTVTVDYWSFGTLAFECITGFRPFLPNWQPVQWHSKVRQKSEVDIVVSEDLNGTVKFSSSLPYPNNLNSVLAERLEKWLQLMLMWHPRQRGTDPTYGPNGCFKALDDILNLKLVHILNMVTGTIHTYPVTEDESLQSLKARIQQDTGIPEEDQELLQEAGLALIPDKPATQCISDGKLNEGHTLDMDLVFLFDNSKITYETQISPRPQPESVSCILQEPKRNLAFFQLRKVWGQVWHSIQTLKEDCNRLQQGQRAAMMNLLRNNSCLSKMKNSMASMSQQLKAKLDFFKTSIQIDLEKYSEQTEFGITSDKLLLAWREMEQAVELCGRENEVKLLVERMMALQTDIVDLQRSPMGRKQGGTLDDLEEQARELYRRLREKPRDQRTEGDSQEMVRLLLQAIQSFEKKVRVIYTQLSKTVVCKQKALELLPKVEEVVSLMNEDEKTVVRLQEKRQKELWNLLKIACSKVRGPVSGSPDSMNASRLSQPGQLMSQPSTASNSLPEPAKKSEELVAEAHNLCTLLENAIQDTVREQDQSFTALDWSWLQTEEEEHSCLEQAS
Excerpt: [IKK-β Kinase Inhibitory Assay]
(1) Preparation of IKK-β Kinase Protein.
• A cDNA fragment encoding human IKK-β open reading frame was generated by PCR with the use of a pair of primers designed from the published sequence (Woronicz J D et al. (1997) Science 278, 866-869). A template was obtained from Quickclone cDNA (Clontech) using Elongase™ Amplification kit (Life Technologies). The DNA fragments generated by PCR were gel-purified and subcloned into pBluescript. The cDNA fragment cloned in pBluescript was inserted into pcDNA3.1/His C KpnI/NotI, and transferred into pVL1393 SmaI/XbaI (Pharmingen) to construct a baculovirus transfer vector. Then the vector, together with the linearized baculovirus (BaculoGold™, Pharmingen) was used to transfect Sf21 cells (Invitrogen, San Diego, Calif.). Generated recombinant baculovirus was cloned and amplified in Sf21 cells, grown in TNM-FH insect cell medium (Life Technologies, Inc.) supplemented with 10% FCS, […] Gentamycin, 0.1% Pluronic F-68 (Life Technologies, Inc.) as suspension culture (200 ml in 1 L Erlenmeyer flask; 27° C.; 130 rpm). Sf21 cells were infected with this amplified virus with a multiplicity of infection of 5 following standard protocols (Crossen R, Gruenwald S (1997) Baculovirus Expression Vector System Instruction Manual, Pharmingen Corporation) and harvested 48 hrs later. The cells were lysed to obtain the produced chimeric protein of IKK-β kinase fused by histidine (His-tagged IKK-beta). (2) The Preparation of Purified GST-IκBα Fusion Proteins • An expression vector containing the nucleotide sequence encoding fusion protein of GST with amino acid residues 1 to 54 of IκBα under the control of an IPTG-inducible promoter was constructed. The expression vector was introduced in E. coli and the transformant was cultured and lysed to obtain a GST-IκBα fusion protein. Then the resulting GST-IκBα fusion protein was purified and biotinated for kinase assay. (3) The Measurement of IKK-β Kinase Activity • The 96-well format kinase assay of IKK-β were performed to test the inhibitory activity of the compounds of the present invention. First, 5 μl of a test compound was put in the presence of 2.5% dimethyl sulfoxide (DMSO) in each well in a U-bottomed 96-well plate (Falcon). For control wells of background (BG) and total phosphorylation (TP), 5 μl of 2.5% DMSO was put. Recombinant IKK-β (final 0.6 μg/ml) and bio-GST-IκBα (1-54) (final 0.2 μM) were diluted in 25 μl of 2×kinase buffer β (40 mM Tris-HCl, pH 7.6, 40 mM MgCl2, 40 mM β-glycerophosphate, 40 mM p-nitrophenylphosphate, 2 mM EDTA, 40 mM creatine phosphate, 2 mM DTT, 2 mM Na3VO4, 0.2 mg/ml BSA and 0.8 mM phenylmethylsulfonyl fluoride) and transferred to the 96-well plate. Bio-GST-IκBα (1-54) in 25 μl of 2×kinase buffer β without IKK-β was transferred to BG wells. Then 20 μl of 12.5 μM ATP, 62.5 μCi/ml [γ-^33P] ATP (Amersham Pharmacia Biotech) was added and the resulting mixture was incubated for 2 hrs at room temperature. The kinase reactions were terminated by the addition of 150 μl of termination buffer (100 mM EDTA, 1 mg/ml BSA, 0.2 mg NaN3). One hundred and fifty μl of the sample were transferred to a streptavidin-coated, white MTP (Steffens Biotechniche Analysen GmbH #08114E14.FWD) to capture the biotinylated substrates. After 1 hr of incubation, non-bound radioactivity was eliminated by washing the wells five times with 300 μl of washing buffer including 0.9% NaCl and 0.1% (w/v) Tween-20 with the use of a MW-96 plate washer (BioTec). The bound radioactivity was determined after the addition of 170 μl MicroScint-PS scintillation cocktail (Packard) using a TopCount scintillation counter. [Syk Tyrosine Kinase Inhibitory Assay for Selectivity] (1) Preparation of Syk Protein • A cDNA fragment encoding human Syk openreading frame was cloned from total RNA of human Burkitt's lymphoma B cell lines, Raji (American Type Culture Collection), with the use of RT-PCR method.

[1] = system: A549 human lung epithelium cell line; experiment: RANTES production in response to TNF-α from A549 cells; type: cell-based; conditions: Homo sapiens, A549, A549 cells, 100 ng/ml TNF-α, read-out: Cellular activity grade (A549) (Cellular IC50)
Protocol: [The Measurement of RANTES Production in Response to TNF-α from A549 Cells]
(1) Preparation of A549 Cells
• The A549 human lung epithelium cell line (ATCC […]) was maintained in Dulbecco's modified Eagle's medium (D-MEM, Nikken Biomedical Institute) supplemented with 10% FCS (Gibco), 100 U/ml penicillin, 100 μg/ml streptomycin, and 2 mM glutamine (culture medium). Forty thousand (4×10^4) cells (80 μl/well) were seeded in each well of 96 well flat-bottom tissue culture plate (Falcon #3072). The plate was allowed to stand for 2 hrs, thus the cells were adhered to the bottom of each well. To the each well was added 10 μl vehicle (1% DMSO), serial dilutions of test compounds in 1% DMSO, or 5 nM Dexamethasone in 1% DMSO as a reference. The mixture (90 μl/well) was incubated for 1 hr at 37° C. After 1 hr, 1 μg/ml TNF-α (10 μl) in culture medium was added to the mixture to obtain 100 μl of reaction mixture. The reaction mixture was cultured for 24 hrs to stimulate the cells with 100 ng/ml TNF-α. Cells with vehicle without TNF-α stimulation were also prepared. (2) Measurement of RANTES Production • Then the concentration of RANTES released from the cells in the supernatants of each well was determined using a quantitative sandwich enzyme immunoassay technique. First, 2 μg/ml mouse anti-huRANTES mAb (R&D Systems, #mAb678) in PBS buffer (pH 7.4, 100 μl) was put in each well of 96-well NUNC fluoro plate (Nalge Nunc, New York USA) (Final 200 ng/well) and the plate was allowed to stand for overnight at 4° C. to be coated by the antibody. Each well of the plate was then washed with 350 μl wash buffer (0.05% Tween-20, 0.85% NaCl, and 25 mM Tris/HCl pH7.4) for three times. Blocking buffer containing 1% BSA (Sigma 99% pure, 100 g), 5% sucrose (Nacalai tesque, 99% pure, 500 g), and 0.02% azide (Nacalai tesque, 100%, 500 g) were added (200 μl) to each well and then the plate was allowed to stand for 4 hours to stabilize the coated antibody. Next, 50 μl supernatants of cell culture prepared in (1) above were put in each well of the 96-well NUNC fluoro plate with coated antibody. Recombinant Human RANTES (Pepro Tech, Inc. #300-06) was used as the standard for the determination of RANTES production (linear range between 1 and 10 ng/ml). Eu-labelled mouse anti-huRANES mAb (60 ng/ml: R&D Systems, #mAb278) in PBS supplemented by 1% BSA and 0.05% Tween 20 was added (50 μl) to each well. The reaction mixtures were incubated at room temperature for 4 hrs. After washing with wash buffer (0.05% Tween-20, 0.85% NaCl, and 25 mM Tris/HCl pH7.4, 350 μl/well) for 5 times with the use of a Sera Washer (Bio-Tech, #MW-96R), the enhancement solution (DELFIA, #1244-405, 100 μl/well) was added to each well. The plate was incubated for 10 minutes at room temperature with moderate shaking. Fluorescent intensity was measured using a DELFIA fluorimeter (Wallac). Excitation was performed at 340 nm and emission was measured at 615 nm. [The Measurement of TNF-α Production in Response to LPS from Peripheral Blood Mononuclear Cells (PBMC)] (1) Preparation of PBMC • Human PBMC were prepared by first obtaining blood from healthy donors and isolating the cells from the blood. The isolation was done by Ficoll gradient-centrifugation method using Ficoll Pacque (Pharmacia #17-1440-02). Within three hours from donation, the isolated PBMC was used. After three times washing with PBS, PBMC were resuspended with RPMI 1640 (Nikken BioMedical Institute) supplemented with 10% FCS (Gibco), 100 U/ml penicillin, 100 μg/ml streptomycin, and 2 mM glutamine (culture medium). The cells (1×10^5 in 150 μL/well) were seeded in each well of 96 well flat-bottom tissue culture plate (Falcon #3072). To the each well was added 20 μl vehicle (1% DMSO), serial dilutions of test compounds in 1% DMSO, or 250 nM Dexamethasone in 1% DMSO as a reference. The mixture (170 μl/well) was incubated for 1 hr at 37° C. After 1 hr, 20 ng/ml LPS (30 μl) in culture medium was added to the mixture to obtain 200 μl of reaction mixture. […]

| Structure (SMILES) | IC50 (human IKK-β) [nM] | IC50 [1] [nM] |
| --- | --- | --- |
| N#Cc1c(C2CNc3ccccc3C2)cc(-c2ccccc2O)nc1N (centres unmarked) [Example 1-16] | > 10000 | – |
| N#Cc1c([C@@H]2Cc3ccccc3CN2)cc(-c2ccccc2O)nc1N [Example 1-27] | 2000 to 10000 | – |
| CCCCOc1cccc(O)c1-c1cc(C2CCNCC2)c(C#N)c(N)n1 [Example 2-72] | < 500 | – |

The remaining lines, values ahead:

| IC50 (human IKK-β) [nM] | IC50 [1] [nM] | Structure (SMILES) |
| --- | --- | --- |
| – | < 1000 | O=C1Nc2nc(-c3c(O)cccc3OCC3CC3)cc(C3CCCNC3)c2CO1 (centres unmarked) [Example 18-1, 7-[2-(cyclopropylmethoxy)-6-hydroxyphenyl]-5-(3-piperidinyl)-1,4-dihydro-2H-pyrido[2,3-d][1,3]oxazin-2-one hydrochloride] |
| < 500 | – | N#Cc1c(NCCN)cc(-c2c(O)cccc2OCC2CC2)nc1N [Example 34-14] |
| > 10000 | – | N#Cc1c(N2CCCCC2)cc(-c2ccccc2O)nc1N [Example 34-05] |
| > 10000 | – | N#Cc1c(C2CCCNC2)cc(-c2ccccc2O)nc1N1CCNCC1 (centres unmarked) [Example 4-5, 6-(2-hydroxyphenyl)-2-(1-piperazinyl)-4-(3-piperidinyl)nicotinonitrile dihydrochloride] |
| < 500 | – | Cn1c(=O)[nH]c2nc(-c3c(O)cccc3OCC3CC3)cc(C3CCCNC3)c2c1=O (centres unmarked) [Example 10-2, 7-(2-Cyclopropylmethoxy-6-hydroxy-phenyl)-3-methyl-5-piperidin-3-yl-1H-pyrido[2,3-d]pyrimidine-2,4-dione] |
